Data from ChEMBL document CHEMBL3217653, “Design and synthesis of -amino alcohol based -lactamisatin chimeras and preliminary analysis of in vitro activity against the protozoal pathogen Trichomonas vaginalis” (Medchemcomm, 2013).

How the values were obtained:
Trichomonas vaginalis [1] = test: Antimicrobial activity against Trichomonas vaginalis G3 assessed as growth inhibition after 24 hrs by hemocytometry; type: functional; conditions: G3, 24 h
Trichomonas vaginalis [2] = test: Antimicrobial activity against Trichomonas vaginalis G3 assessed as growth inhibition at 50 uM after 24 hrs by hemocytometry; type: functional; conditions: G3, 24 h, read-out: GI
[3] = Cytotoxicity against human HeLa cells assessed as cell viability at 10 uM after 24 hrs by trypan blue assay relative to bleomycin; type: cell-based; conditions: read-out: Activity

O=C1C(=O)N(CC(CO)N[C@@H]2C(=O)N(c3ccc(Cl)cc3)[C@@H]2/C=C/c2ccccc2)c2ccccc21 (some centres undefined)
IC50 (Trichomonas vaginalis [1]): 24.7 µM
inhibition of growth at 50 µM (Trichomonas vaginalis [2]): 76.2%

Cc1ccc2c(c1)C(=O)C(=O)N2CC(CO)N[C@@H]1C(=O)N(c2ccc(Cl)cc2)[C@@H]1/C=C/c1ccccc1 (some centres undefined)
IC50 (Trichomonas vaginalis [1]): 14.6 µM
inhibition of growth at 50 µM (Trichomonas vaginalis [2]): 97.6%

O=C1C(=O)N(CC(CO)N[C@@H]2C(=O)N(c3ccc(Cl)cc3)[C@@H]2/C=C/c2ccccc2)c2ccc(F)cc21 (some centres undefined)
IC50 (Trichomonas vaginalis [1]): 27.4 µM
inhibition of growth at 50 µM (Trichomonas vaginalis [2]): 77.2%

Cc1ccc(N2C(=O)[C@@H](NC(CO)CN3C(=O)C(=O)c4ccccc43)[C@H]2/C=C/c2ccccc2)cc1 (relative stereo)
IC50 (Trichomonas vaginalis [1]): 19.2 µM
inhibition of growth at 50 µM (Trichomonas vaginalis [2]): 95.3%

O=C1C(=O)N(CC(CO)N[C@@H]2C(=O)N(C3CCCCC3)[C@@H]2/C=C/c2ccccc2)c2ccccc21 (relative stereo)
IC50 (Trichomonas vaginalis [1]): 18.5 µM
inhibition of growth at 50 µM (Trichomonas vaginalis [2]): 93.6%

Cc1ccc(N2C(=O)[C@@H](NC(CO)CN3C(=O)C(=O)c4cc(C)ccc43)[C@H]2/C=C/c2ccccc2)cc1 (relative stereo)
inhibition of growth at 50 µM (Trichomonas vaginalis [2]): 56%

Cc1ccc2c(c1)C(=O)C(=O)N2CC(CO)N[C@@H]1C(=O)N(C2CCCCC2)[C@@H]1/C=C/c1ccccc1 (relative stereo)
inhibition of growth at 50 µM (Trichomonas vaginalis [2]): 70.8%

Cc1ccc(N2C(=O)[C@@H](NC(CO)CN3C(=O)C(=O)c4cc(Cl)ccc43)[C@H]2/C=C/c2ccccc2)cc1 (relative stereo)
inhibition of growth at 50 µM (Trichomonas vaginalis [2]): 59.8%

O=C1C(=O)N(CC(CO)N[C@@H]2C(=O)N(c3ccc(Cl)cc3)[C@@H]2/C=C/c2ccccc2)c2ccc(Cl)cc21 (relative stereo)
viability at 24 h, 10 µM [3]: 30%
IC50 (Trichomonas vaginalis [1]): 9.73 µM
inhibition of growth at 50 µM (Trichomonas vaginalis [2]): 97.1%

O=C1C(=O)N(CC(CO)N[C@@H]2C(=O)N(C3CCCCC3)[C@@H]2/C=C/c2ccccc2)c2ccc(Cl)cc21 (relative stereo)
inhibition of growth at 50 µM (Trichomonas vaginalis [2]): 61.8%

Cc1ccc(N2C(=O)[C@@H](NC(CO)CN3C(=O)C(=O)c4cc(F)ccc43)[C@H]2/C=C/c2ccccc2)cc1 (relative stereo)
inhibition of growth at 50 µM (Trichomonas vaginalis [2]): 71.9%

O=C1C(=O)N(CC(CO)N[C@@H]2C(=O)N(C3CCCCC3)[C@@H]2/C=C/c2ccccc2)c2ccc(F)cc21 (relative stereo)
inhibition of growth at 50 µM (Trichomonas vaginalis [2]): 64.6%
